31 compounds from patent US20260297083A1, “SUBSTITUTED ACETYLENE COMPOUND DERIVATIVES AND THEIR PHARMACEUTICAL USE” (AVELOS THERAPEUTICS INC., priority 2023, published 2026) can be followed below.

pIC50: −log10 of the molar value. Bounds are passed on as bounds.

The experiment concerns the target T1, Polθ polymerase domain (amino acids 1792-2590) (Homo sapiens, UniProt O75417).
T1 construct: 10×Histidine-SUMO (N, cleaved yes); made in house; host or cells: E. coli
T1 sequence (O75417 1792-2590): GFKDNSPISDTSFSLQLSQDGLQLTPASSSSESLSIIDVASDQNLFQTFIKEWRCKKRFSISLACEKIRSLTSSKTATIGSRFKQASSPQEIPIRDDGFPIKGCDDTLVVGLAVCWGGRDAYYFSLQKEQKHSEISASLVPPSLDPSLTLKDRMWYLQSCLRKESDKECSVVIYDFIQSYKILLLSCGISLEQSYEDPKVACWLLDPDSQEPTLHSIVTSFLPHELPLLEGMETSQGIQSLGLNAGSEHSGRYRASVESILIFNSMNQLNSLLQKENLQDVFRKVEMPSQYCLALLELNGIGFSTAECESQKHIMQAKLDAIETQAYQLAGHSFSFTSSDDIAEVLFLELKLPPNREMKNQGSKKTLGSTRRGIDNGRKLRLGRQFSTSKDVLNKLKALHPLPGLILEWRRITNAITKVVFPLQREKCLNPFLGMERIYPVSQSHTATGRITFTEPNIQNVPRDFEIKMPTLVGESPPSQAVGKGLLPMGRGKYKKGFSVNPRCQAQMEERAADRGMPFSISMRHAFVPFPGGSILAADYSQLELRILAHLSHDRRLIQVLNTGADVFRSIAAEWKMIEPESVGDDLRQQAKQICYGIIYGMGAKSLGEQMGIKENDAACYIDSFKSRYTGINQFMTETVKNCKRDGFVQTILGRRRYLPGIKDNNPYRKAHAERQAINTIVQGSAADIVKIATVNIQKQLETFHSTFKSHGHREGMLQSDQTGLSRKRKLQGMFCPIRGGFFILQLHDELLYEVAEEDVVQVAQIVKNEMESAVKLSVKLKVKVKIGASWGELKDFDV
Description: Picogreen assay of Polθ polymerase activity. Format: biochemical. Conditions: 12-point concentration response, 90 minutes incubation at room temperature, 8 nM Polθ in 2×polymerase mixture, read-out: PolQ IC50. The text has this: The DNA sequence of the polQ gene (Genebank ID #NM 199420.4) was chemically synthesized. The DNA sequence encoding the polymerase domain (amino acids 1792-2590) was subcloned into an E. coli expression plasmid, resulting in the fusion of 10×Histidine-SUMO tag at the N terminus of the polymerase domain.
The protein was expressed in E. coli. and purified using a 2-step IMAC (immobilized metal chelate affinity chromatography) procedure. Briefly stated, the overexpressed E. coli lysate was subjected to Ni-NTA purification, and an N-terminal tag was digested by a SUMO protease. Then, the excised fragment of 10×Histidine-SUMO tag was removed using Ni-NTA beads. The resulting protein was used for the Picogreen assay, as described below.
The methods of DNA complex preparation were slightly modified from the protocol previously reported (Zatreanu et al., 2021, Nature Communications, 12:3636). Briefly stated, polθ substrate was prepared by mixing Oligo1 (5′-GCG GCT GTC ATA AG-3′) and Oligo2 (5′-GCTACATTGACAATGGCATCAAATCTCAGATTGCGTCTTATGACAGCCGCG-3′) in an annealing buffer (20 mM Tris-Cl, pH 7.5, 50 mM NaCl) to the final concentration of 22 uM and 20 uM, respectively. The Polθ product was prepared by mixing Oligo3 (5′-CGCGGCTGTCATAAGACGCAATCTGAGATTTGATGCCATTGTCAATGTAGC-3′) and Oligo2 (5′-GCTACATTGACAATGGCATCAAATCTCAGATTGCGTCTTATGACAGCCGCG-3′) to the final concentration of 20 uM. The polθ product was used for the top signal control in the Picogreen assay. Both substrate and product were heated to 95° C. […] and cooled slowly to room temperature.
To evaluate the ability of test compounds to inhibit the activity of polθ in vitro, a Picogreen assay was performed to measure polθ IC50 (nM).
The reactions were performed at room temperature in an assay buffer (25 mM Tris-HCl, pH 7.5, 12.5 mM NaCl, 0.5 mM MgCl2, 5% (v/v) glycerol, 0.01% (v/v) Triton X-100, 0.01% (w/v) Bovine serum albumin, 1 mM DTT). Thirty microliters of 2×polymerase mixture (8 nM Polθ enzyme in an assay buffer) were distributed to 96 well plates, test compounds were prepared by dilution in 100% DMSO to obtain the correct dose range for a 12-point concentration response and 1 μl was dispensed into each well, and then 30 microliters of 2×substrate mix (100 nM DNA and 40 uM dNTPs in an assay buffer) was added. After 90 minutes of incubation, the reaction was stopped and DNA was stained by adding 40 microliters of Picogreen solution (1:80 dilution of Picogreen, Invitrogen, Cat #P7581, 25 mM Tris-HCl, pH 7.5, 10 mM EDTA, pH 7.5).
The fluorescence intensity was measured at excitation/emission=485 nm/520 nm using an Ensight plate reader (Perkin Elmer). The data was analyzed by GraphPad Prism software (Version 8.4.3) to calculate IC50.
For `Cc1cc(C(F)(F)F)cc(N2[C@H](C(=O)N(CC#Cc3ccc(C(N)=O)cn3)c3ccc(F)c(C)c3)CCS2(=O)=O)n1` [compound 97], the pIC50 – broadly, the negative decadic logarithm of the IC50, by convention in mol/L – was 7.30 to 9.00.
For `Cc1cc(C(F)(F)F)cc(N2[C@H](C(=O)N(CC#Cc3cnc(N4C[C@H](C)N(C(C)C)[C@@H](C)C4)cn3)c3ccc(F)c(C)c3)CCS2(=O)=O)n1` (stereo in doubt) [compound 54], the negative-log IC50 (pIC50) was below 7.00.
Regarding `Cc1cc(C(F)(F)F)cc(N2[C@H](C(=O)N(CC#Cc3cnc(N4[C@H](C)CN(C(C)C)C[C@H]4C)cn3)c3ccc(F)c(C)c3)CCS2(=O)=O)n1` [compound 55], the pIC50 is 7.30 to 9.00.
The figure for `Cc1cc(C(F)(F)F)cc(N2[C@H](C(=O)N(CC#Cc3cnc(-c4ncon4)cn3)c3ccc(F)c(C)c3)CCS2(=O)=O)n1` [compound 58] is below 7.00; for `Cc1cc(C(F)(F)F)cc(N2[C@H](C(=O)N(CC#Cc3cc(C)c(N)c(C)n3)c3ccc(F)c(C)c3)CCS2(=O)=O)n1` [compound 91] it is 7.30 to 9.00.
The value for `Cc1cc(C(F)(F)F)cc(N2[C@H](C(=O)N(CC#Cc3cnc(C(=O)N(C)C)cn3)c3ccc(F)c(C)c3)CCS2(=O)=O)n1` [compound 68] was 7.30 to 9.00; that for `CC(=O)Nc1cnc(C#CCN(C(=O)[C@@H]2CCS(=O)(=O)N2c2cc(C(F)(F)F)cc(C)n2)c2ccc(F)c(C)c2)cn1` [compound 34] was 7.30 to 9.00.
The figure for `Cc1cc(C(F)(F)F)cc(N2[C@H](C(=O)N(CC#Cc3cnc(C(N)=O)c(C#N)c3)c3ccc(F)c(C)c3)CCS2(=O)=O)n1` [compound 121] is 7.30 to 9.00; for `Cc1cc(C(F)(F)F)cc(N2[C@H](C(=O)N(CC#Cc3ccc(C(N)=O)nc3)C(C)(C)c3ccc(F)c(C)c3)CCS2(=O)=O)n1` [compound 112] it is below 7.00.
For `Cc1cc(C(F)(F)F)cc(N2[C@H](C(=O)N(CC#Cc3ncc(C(N)=O)nc3C)c3ccc(F)c(C)c3)CCS2(=O)=O)n1` [compound 118], the pIC50 was 7.30 to 9.00.
Turning to `Cc1cc(C(F)(F)F)cc(N2[C@H](C(=O)N(CC#Cc3cnc(S(N)(=O)=O)cn3)c3ccc(F)c(C)c3)CCS2(=O)=O)n1` [compound 65], the pIC50 is below 7.00.
The figure for `Cc1cc(C(F)(F)F)cc(N2[C@H](C(=O)N(CC#Cc3ccc(N)nn3)c3ccc(F)c(C)c3)CN(C(C)C)S2(=O)=O)n1` [compound 110] is 7.30 to 9.00.
Regarding `Cc1cc(C(F)(F)F)cc(N2[C@H](C(=O)N(CC#Cc3cnc(C(=O)N4CCOCC4)cn3)c3ccc(F)c(C)c3)CCS2(=O)=O)n1` [compound 69], the pIC50 is 7.30 to 9.00.
The value for `Cc1cc(C(F)(F)F)cc(N2[C@H](C(=O)N(CC#Cc3cccc(OC(F)F)n3)c3ccc(F)c(C)c3)CCS2(=O)=O)n1` [compound 89] was 7.00 to 7.29; that for `Cc1cc(C(F)(F)F)cc(N2[C@H](C(=O)N(CC#Cc3ccc(Cc4ncc(C(N)=O)cn4)nc3)c3ccc(F)c(C)c3)CCS2(=O)=O)n1` [compound 132] was 7.30 to 9.00.
The value for `C=CC(=O)Nc1cnccc1C#CCN(C(=O)[C@@H]1CCS(=O)(=O)N1c1cc(C(F)(F)F)cc(C)n1)c1ccc(F)c(C)c1` [compound 144, (S)-N-(3-(3-acrylamidopyridin-4-yl)prop-2-yn-1-yl)-N-(4-fluoro-3-methylphenyl)-2-(6-methyl-4-(trifluoromethyl)pyridin-2-yl)isothiazolidine-3-carboxamide 1,1-dioxide] was 7.00 to 7.29.
For `Cc1cc(C(F)(F)F)cc(N2[C@H](C(=O)N(CC#Cc3cc(N4CCOCC4)ncn3)c3ccc(F)c(C)c3)CCS2(=O)=O)n1` [compound 75], the pIC50 is 7.30 to 9.00.
The figure for `Cc1cc(C(F)(F)F)cc(N2[C@H](C(=O)N(CC#Cc3cnc(N4C5CCC4COC5)cn3)c3ccc(F)c(C)c3)CCS2(=O)=O)n1` [compound 49] is 7.30 to 9.00; for `C=CC(=O)Nc1cncc(C#CCN(C(=O)[C@@H]2CCS(=O)(=O)N2c2cc(C(F)(F)F)cc(C)n2)c2ccc(F)c(C)c2)n1` [compound 128] it is 7.30 to 9.00.
As for `C=CC(=O)Nc1cc(C#CCN(C(=O)[C@@H]2CCS(=O)(=O)N2c2cc(C(F)(F)F)cc(C)n2)c2ccc(F)c(C)c2)ccn1` [compound 139, (S)-N-(3-(2-acrylamidopyridin-4-yl)prop-2-yn-1-yl)-N-(4-fluoro-3-methylphenyl)-2-(6-methyl-4-(trifluoromethyl)pyridin-2-yl)isothiazolidine-3-carboxamide 1,1-dioxide], the pIC50 is 7.30 to 9.00.
The figure for `Cc1cc(C(F)(F)F)cc(N2[C@H](C(=O)N(CC#Cc3ccc(C(N)=O)nc3)c3ccc(F)c(C)c3)CC3(CC3)S2(=O)=O)n1` [compound 145, (S)—N-(3-(6-carbamoylpyridin-3-yl)prop-2-yn-1-yl)-N-(4-fluoro-3-methylphenyl)-5-(6-methyl-4-(trifluoromethyl)pyridin-2-yl)-4-thia-5-azaspiro [2,4]heptane-6-carboxamide 4,4-dioxide] is 7.30 to 9.00.
The figure for `Cc1cc(C(F)(F)F)cc(N2[C@H](C(=O)N(CC#Cc3cnc(N4CCOCC4)cn3)c3ccc(F)c(C)c3)CCS2(=O)=O)n1` [compound 39] is 7.30 to 9.00; for `Cc1cc(C(F)(F)F)cc(N2[C@H](C(=O)N(CC#Cc3cccc(OC(C)C)n3)c3ccc(F)c(C)c3)CCS2(=O)=O)n1` [compound 88] it is below 7.00.
The value for `CCN1CCN(c2cnc(C#CCN(C(=O)[C@@H]3CCS(=O)(=O)N3c3cc(C(F)(F)F)cc(C)n3)c3ccc(F)c(C)c3)cn2)CC1` [compound 50] was 7.30 to 9.00; that for `Cc1cc(C(F)(F)F)cc(N2[C@H](C(=O)N(CC#Cc3ncc(C(=O)N4CCOCC4)cn3)c3ccc(F)c(C)c3)CCS2(=O)=O)n1` [compound 82] was 7.00 to 7.29; that for `Cc1cc(C(F)(F)F)cc(N2[C@H](C(=O)N(CC#Cc3cnc(C(N)=O)nn3)c3ccc(F)c(C)c3)CCS2(=O)=O)n1` [compound 123] was 7.30 to 9.00.
As for `Cc1cc(C(F)(F)F)cc(N2[C@H](C(=O)N(CC#Cc3cncc(S(N)(=O)=O)n3)c3ccc(F)c(C)c3)CCS2(=O)=O)n1` [compound 66], the pIC50 is 7.00 to 7.29.
The figure for `Cc1cc(C(F)(F)F)cc(N2[C@H](C(=O)N(CC#Cc3ncc(C(=O)N4C5CCC4COC5)cn3)c3ccc(F)c(C)c3)CCS2(=O)=O)n1` [compound 83] is 7.30 to 9.00.
In the case of `Cc1cc(C(F)(F)F)cc(N2C(=O)CC[C@H]2C(=O)N(CC#Cc2cnc(N3CCOCC3)cn2)c2ccc(F)c(C)c2)n1` [compound 10], the pIC50 was 7.30 to 9.00.
The value for `Cc1cc(C(F)(F)F)cc(N2[C@H](C(=O)N(CC#Cc3cnc4c(c3)C(=O)N(C)C4=O)c3ccc(F)c(C)c3)CCS2(=O)=O)n1` [compound 100] was 7.30 to 9.00; that for `Cc1cc(C(F)(F)F)cc(N2C(=O)CC[C@H]2C(=O)N(CC#CCN2CCN(c3cnccn3)CC2)c2ccc(F)c(C)c2F)n1` [compound 15] was 7.30 to 9.00.
